The record followed here is patent US20090221522A1, “METHODS TO CORRECT GENE SET EXPRESSION PROFILES TO DRUG SENSITIVITY” (The Johns Hopkins University, priority 2008, published 2009).

In experiment [1] the test system is direct-patient pancreatic cancer xenografts. The experiment in a line: Xenograft treatment, relative tumor growth inhibition (TGI). The class given is in vivo, mice. The source says:
Four- to six-week-old female athymic (nu/nu) mice were purchased from Harlan (Harlan Laboratories, Washington, D.C.). The research protocol was approved by the Johns Hopkins University Animal Use and Care Committee and animals were maintained in accordance to guidelines of the American Association of Laboratory Animal Care. Xenografts obtained from F1 mice were excised and cut into small ˜3×3×3 mm fragments and then implanted subcutaneously in a group of five to six mice for each patient, with two small fragments in each mouse (F2) as described above for the original carcinoma. Half of the rest of the carcinoma was cryopreserved in liquid nitrogen and the other half is processed for biological studies. When the carcinoma reached a size of 1,500 mm^3, they were excised, cut into ˜3×3×3 mm fragments, and transplanted to the final cohort of mice to be treated with the drugs (F3 and successive passages). Further details of the establishment of the direct-patient pancreatic cancer xenografts are described in Rubio-Viqueira B, Jimeno A, Cusatis G, et al. An In vivo Platform for Translational Drug Development in Pancreatic Cancer. Clin Cancer Res 2006 12:4652-61.
Gemcitabine (Eli Lilly, Indianapolis, Ind.) was dissolved in saline. In some embodiments, docetaxel (Sanofi-Aventis, Bridgewater, N.J.) was dissolved in 50% ethanol and 50% DMSO. In other embodiments, docetaxel (Sanofi-Aventis, Bridgewater, N.J.) was dissolved in ethanol/polysorbate 80 as a stock solution and diluted 10-fold in 5% glucose for in vivo studies. Temsirolimus (Wyeth Research, Colleville, Pa.) was dissolved in 10% ethanol, 10% pluronic, and 80% PBS. All drugs were freshly prepared and used at an injection volume of 0.2 mL/20 g body weight. Drug doses and treatment schedules were obtained from published studies.
Xenografts from this second mouse-to-mouse passage (F3) were allowed to grow to a size of ˜200 mm^3, at which time five-to-six mice were randomly assigned to control and treatment groups. […] For docetaxel treatment group, mice were treated with 20 mg/kg once a week via intraperitoneal injection. For temsirolimus treatment group, mice were treated with 20 mg/kg/day via intraperitoneal injection. Mice were treated for 21-28 days, monitored daily for signs of toxicity, and were weighed thrice a week. Tumor size was evaluated thrice a week by caliper measurements using the following formula: tumor volume=[length×width^2]/2 as reported by van de Vijver M J, He Y D, van't Veer L J, et al. A Gene-Expression Signature as a Predictor of Survival in Breast Cancer. N Engl J Med 2002 347:1999-2009.
(§1) Relative tumor growth index (TGI) was calculated as TGI=(Ti−T0/Ci−C0) if Ti>T0 (indicates tumor growth inhibition) and TGI=(Ti−T0) if Ti≦T0 (indicates tumor regression). T and C represent tumor size in the treated and control group at the last of experiment, respectively; T0 and C0 represent tumor size in the treated and control group at the start of treatment, respectively.

Experiment [2] has as its system patient-derived xenografts refractory to gemcitabine. The experiment in a line: Pre-clinical second-line study in xenografts refractory to gemcitabine (TGI). The class given is in vivo, mice. As to conditions: for tumor volume change: second-line molecular mimicry choice (docetaxel). On the procedure: FIG. 11 illustrates a pre-clinical design.
FIG. 12 illustrates validation on the xenografts of FIG. 11 based on prediction according to the present invention. Four xenograft cases were used. […] A case is defined as a responder to the drug treatment if Tumor Growth Inhibition (TGI) is <20%. Negative TGI values indicate tumor regression.
as §1
Seven FDA approved anticancer agents (capecitabine, cisplatin, docetaxel, doxorubicin, etoposide, irinotecan and oxaliplatin) were used as potential second line of drugs for selection according to the present invention. The one-size-fits-all treatment was erlotinib, an FDA approved targeted therapy for advanced pancreatic cancer. See Moore M J, Goldstein D, Hamm J, et al. Erlotinib plus gemcitabine compared with gemcitabine alone in patients with advanced pancreatic cancer: a phase Ill trial of the National Cancer Institute of Canada Clinical Trials Group. J Clin Oncol 25:1960-06 2007. […] Xenograft models of these cases were randomly assigned to (i) control, (ii) erlotinib arm (one-size-fits-all second line treatment) and (iii) molecular mimicry arm (i.e., drug selection according to the present invention). For the molecular mimicry arm, the baseline gene expression profiles of these cases were connected the NCI reference panel using GS-CMAP, and one of the seven anticancer agents was assigned to the case based on comparing the GI50 among these drugs. Molecular mimicry predicted that JH033 and JH034 are sensitive to docetaxel, PANC185 is sensitive to irinotecan and PANC219 is sensitive to doxorubicin. These cases were treated with the molecular mimicry choice of drugs and tumor volumes were measured. At the end of the experiment, xenografts treated with molecular mimicry choice of drugs had higher tumor growth inhibition than their litter mates treated with erlotinib (FIGS. 12 and 13).

As to `CO[C@H]1C[C@@H]2CC[C@@H](C)[C@@](O)(O2)C(=O)C(=O)N2CCCC[C@H]2C(=O)O[C@H]([C@H](C)C[C@@H]2CC[C@@H](OC(=O)C(C)(CO)CO)[C@H](OC)C2)CC(=O)[C@H](C)/C=C(\C)[C@@H](O)[C@@H](OC)C(=O)[C@H](C)C[C@H](C)/C=C/C=C/C=C/1C` [temsirolimus], the TGI in experiment [1] (xenograft JH024, after temsirolimus treatment) is on record as 94%; in experiment [1] (xenograft PANC219, after temsirolimus treatment), −23%. In addition, the “xenograft response (sensitive/resistant)” value in experiment [1] (xenograft JH024, temsirolimus) is “resistant”; in experiment [1] (xenograft PANC219, temsirolimus), “sensitive”.
With `CC(=O)O[C@@]12CO[C@@H]1C[C@H](O)[C@@]1(C)C(=O)[C@H](O)C3=C(C)[C@@H](OC(=O)[C@H](O)[C@@H](NC(=O)OC(C)(C)C)c4ccccc4)C[C@@](O)([C@@H](OC(=O)c4ccccc4)[C@H]21)C3(C)C` [docetaxel], the tumor volume change entry in experiment [2] (xenograft JH033) and in experiment [2] (xenograft JH034) was “Regression in tumor volume” throughout. For the same compound, the “xenograft response (sensitive/resistant)” value is “resistant” in experiment [1] (xenograft PANC185, docetaxel); “resistant” in experiment [1] (xenograft PANC215, docetaxel); “sensitive” in experiment [1] (xenograft PANC265, docetaxel). Besides, the TGI in experiment [1] (xenograft PANC185, docetaxel for 21 days) is listed as 83%; in experiment [1] (xenograft PANC215, docetaxel for 21 days) it was 41%; in experiment [1] (xenograft PANC265, docetaxel for 21 days), −79%.
Consider `C#Cc1cccc(Nc2ncnc3cc(OCCOC)c(OCCOC)cc23)c1` [erlotinib], for which, in experiment [2] (four xenograft cases (PANC185, PANC219, JH033, JH034)), the “median TGI” value was found to be 33%. In addition, the “mean TGI %” value in experiment [2] (four xenograft cases, second-line arm) turned out to be 30%. Also, the “responders (TGI <20%)” value in experiment [2] (of four xenograft cases, second-line treatment) is reported as “only one xenograft responded”.
